Laboratory results from patent US12246022B2, “Compositions and methods for treating, preventing or reversing age associated inflammation and disorders” (BROWN UNIVERSITY, priority 2019, dated 2025).
Where two headings read alike, the source gives them in different places.

Assays:
IFN-I response = IFN-I response in senescent and 3X human fibroblasts (RT-qPCR, ELISA, immunoblotting); type: cell-based
Source text: To obtain replicatively senescent (RS) cells, LF1 cultures were serially propagated until proliferation ceased. At each passage, after reaching 80% confluence cells were trypsinized and diluted 1:4. […] In early passage cultures, the time between passages is constant at approximately 3 days. […] At this point, after reaching 80% confluence, the cells were replated at 1:2 dilution, and this time was designated as the last passage (point A in FIG. 2A). […] Under this experimental regimen, the majority of the cells in the culture enter senescence within a 3-4 weeks window centered roughly around the time of last passage (grey bar in FIG. 2A). At point B (4 weeks), the cultures were trypsinized and replated as described^60 to eliminate a small fraction of persisting contact-inhibited cells. Cultures were again replated at point C (8 weeks).
Oncogene-induced senescence (OIS) was elicited by infecting proliferating LF1 cells with pLenti CMV RasV12 Neo (Addgene plasmid #22259). Generation of lentiviral particles and the infection procedure are described below. At the end of the infection, cells were reseeded at 15-20% confluency and selected with G418 (250 μg/ml) maintained continuously until the end of the experiment Medium was changed every 3 days until the cultures were harvested at the indicated time points. Stress-induced premature senescence (SIPS) was elicited by […] irradiation with 20 Gy given at a rate of 87 cGy/min in one fraction using a cesium-137 gamma source (Nordion Gammacell 40). Cells were 15-20% confluent at the time of irradiation. Medium was changed immediately after irradiation, and at 3-day intervals thereafter. […]
The ABI ViiA 7 instrument (Applied Biosystems) was used for all experiments. qPCR of DNA was performed using the TaqMan system (Applied Biosystems) as described by Coufal et al. (2009).^64 […] of purified genomic DNA was used with the indicated primers (see Table 1). […] Effectiveness of the DNase digestion was assessed using controls that omitted the RT enzyme. […]

human LINE-1 = experiment: Human LINE-1 retrotransposition assay (dual luciferase pYX017 reporter, HeLa cells, Table 11); type: cell-based
Experimental: Assays were performed as described in Xie et al., 2011^151 with several modifications. The reporter assay was performed in 96 well white Optical bottom plates. 6000 HeLa cells were seeded in each well 24 hours prior transfection and compound treatment. All compounds were resuspended in DMSO. Stock solution concentrations varied from 50 mM to 1.25 mM depending of the solubility of the compound. Serial dilutions (1:3) were prepared in DMSO. Ten different concentrations of each compound were tested in triplicate. Medium containing different concentrations of the compounds were prepared by adding 2 μL of the compound dilution to 1 mL of the culture medium. The final concentration of DMSO in the medium was 0.2%. FuGENE® HD transfection reagent (Promega) was used to transfect the plasmid pYX016 into the cells. The transfection mix was prepared in OpiMEM (Thermo Fisher) using a reagent to DNA ratio of 3.5:1 according to manufacturer's instructions. Culture medium was removed from the cells and discarded. The transfection mix (5 μL) was mixed with the compound containing medium (100 μL/well) and this was added onto the cells of each well. Cells were incubated for 48H at 37° C./5% CO2. Luciferase reporter activity was quantified with the Dual-Luciferase® Reporter Assay System (Promega) according to manufacturer's instructions for multiwell plates with the following modification: Cells were lysed directly on the multiwell plate with 30 μL of the passive lysis buffer (PLB) for 20 min at room temperature, with gentle shaking to ensure complete cell lysis (instead of 20 μL of PLB for 15 min). Firefly and Renilla luciferase signals were measured using a SpectraMax i3x Multi-Mode Microplate Reader. […] Relative L1 activity was calculated as Firefly/Renilla *10,000. […] The experiment was performed twice, independently. […] Because the human construct yields a lower signal, compounds were incubated with cells for 72 hours instead of 48 hours, and cells were seeded at a density of 2000/well instead of 6000/well. In addition, the transfection reagent to DNA ratio was 2:1 instead of 3.5:1.

| Compound | interferon gene expression (IFN-α, IFN-β1) (IFN-I response; LF1, 50 μM, drug for 1 month from 3 months in senescence) | IC50 (human LINE-1; pYX017, 72 H post-transfection, read-out: Human L1 activity inhibition IC50, Exp. 1) | IC50 (human LINE-1; pYX017, 72 H post-transfection, read-out: Human L1 activity inhibition IC50, Exp. 2) | IC50 (human LINE-1; pYX017, 72 H, n = 2, read-out: Human L1 activity inhibition IC50, Average) | IC50 (human LINE-1; read-out: human L1 inhibition IC50) | concentration range that optimally inhibited the IFN-I response (IFN-I response; senescent cells) |
| --- | --- | --- | --- | --- | --- | --- |
| Nc1nc(=O)n([C@@H]2CS[C@H](CO)O2)cc1F [Emtricitabine] | decreased the expression of interferons |  |  |  |  |  |
| Nc1ccn([C@@H]2CS[C@H](CO)O2)c(=O)n1 [Lamivudine] |  | 793 nM | 867 nM | 830 nM | > 800 nM | 7.5 to 10 µM |
